Assay results published in patent US20060183693A1, “Use of BIBN4096 in combination with other antimigraine drugs for the treatment of migraine” (Boehringer Ingelheim Pharma GmbH & Co. KG, priority 2001, published 2006).

Test system: facial skin vasodilation induced by electrical trigeminal ganglion stimulation
Assay: Facial skin blood flow (vasodilation) after electrical trigeminal ganglion stimulation, laser Doppler flowmetry
Format: in vivo
Details: anaesthetized male Wistar rat, 0.1 mg/kg i.v. 5 min prior to second stimulation
Protocol: Measurement of Facial Skin Blood Flow
Fasted male wistar rats (strain CHbb:THOM, 280-320 g) were anaesthetized with sodium pentobarbitone (initially with 60 mg/kg i.p. and maintained throughout the experiment with an intraperitoneal infusion of 30 mg/kg/h through a 23 G needle using a solution of 10 mg/ml). […] The trachea was cannulated and the animals were artificially respired (80 strokes/min) with room air supplemented with oxygen. The body temperature was maintained at 37° C. by an automated heating pad. The left femoral artery and the left femoral vein were cannulated for the continuous measurement of arterial blood pressure and intravenous administration of test compounds, respectively. Neuromuscular blockade was achieved by intravenous administration of pancuronium bromide (1 mg/kg/0.5 ml, 5 min prior to each electrical stimulation). Heart rate was derived from the blood pressure signal. Blood pressure and heart rate were continuously monitored throughout the course of the experiment to assess the level of anaesthesia and to monitor the cardiovascular effects of the drugs used in this study.
The animals were placed in a stereotaxic frame and a longitudinal incision was made in the scalp. […] The position of the electrodes in the trigeminal ganglia were checked visually at the end of each experiment following removal of the brain. […]

CN1C[C@H](C(=O)N[C@]2(C)O[C@@]3(O)[C@@H]4CCCN4C(=O)[C@H](Cc4ccccc4)N3C2=O)C[C@@H]2c3cccc4[nH]cc(c34)C[C@H]21 [DHE, Dihydroergotamin]
% of trigeminus stimulation (mean ± spread): 60.4 ± 4.1%
% inhibition compared to control value (vs saline control): 27.0%
